Read-outs that look alike come from different tables or passages of the source.
What was measured:
[1] = target: Myc-GyrB-FGFR fusion protein (Homo sapiens, UniProt P11362); assay: Biochemical FGFR assay (ELISA)
EGFR = EGFR (Homo sapiens, UniProt P00533); assay: Biochemical EGFR assay (ELISA, A431 cell lysate); set-up: A431 cell lysate (Screening Lab, SUGEN, Inc.); host or cells: A431; conditions: read-out: bio EGFr IC50
How it was run: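 EGFR captured from A431 cell lysate onto anti-EGFR-coated plates, then incubated with test compound for 30 min at room temperature. Tyrosine phosphorylation with ATP/MnCl2 was stopped with EDTA after 5 min and detected by anti-phosphotyrosine ELISA with peroxidase/ABTS read-out.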

Sequence of EGFR (P00533 25-1210): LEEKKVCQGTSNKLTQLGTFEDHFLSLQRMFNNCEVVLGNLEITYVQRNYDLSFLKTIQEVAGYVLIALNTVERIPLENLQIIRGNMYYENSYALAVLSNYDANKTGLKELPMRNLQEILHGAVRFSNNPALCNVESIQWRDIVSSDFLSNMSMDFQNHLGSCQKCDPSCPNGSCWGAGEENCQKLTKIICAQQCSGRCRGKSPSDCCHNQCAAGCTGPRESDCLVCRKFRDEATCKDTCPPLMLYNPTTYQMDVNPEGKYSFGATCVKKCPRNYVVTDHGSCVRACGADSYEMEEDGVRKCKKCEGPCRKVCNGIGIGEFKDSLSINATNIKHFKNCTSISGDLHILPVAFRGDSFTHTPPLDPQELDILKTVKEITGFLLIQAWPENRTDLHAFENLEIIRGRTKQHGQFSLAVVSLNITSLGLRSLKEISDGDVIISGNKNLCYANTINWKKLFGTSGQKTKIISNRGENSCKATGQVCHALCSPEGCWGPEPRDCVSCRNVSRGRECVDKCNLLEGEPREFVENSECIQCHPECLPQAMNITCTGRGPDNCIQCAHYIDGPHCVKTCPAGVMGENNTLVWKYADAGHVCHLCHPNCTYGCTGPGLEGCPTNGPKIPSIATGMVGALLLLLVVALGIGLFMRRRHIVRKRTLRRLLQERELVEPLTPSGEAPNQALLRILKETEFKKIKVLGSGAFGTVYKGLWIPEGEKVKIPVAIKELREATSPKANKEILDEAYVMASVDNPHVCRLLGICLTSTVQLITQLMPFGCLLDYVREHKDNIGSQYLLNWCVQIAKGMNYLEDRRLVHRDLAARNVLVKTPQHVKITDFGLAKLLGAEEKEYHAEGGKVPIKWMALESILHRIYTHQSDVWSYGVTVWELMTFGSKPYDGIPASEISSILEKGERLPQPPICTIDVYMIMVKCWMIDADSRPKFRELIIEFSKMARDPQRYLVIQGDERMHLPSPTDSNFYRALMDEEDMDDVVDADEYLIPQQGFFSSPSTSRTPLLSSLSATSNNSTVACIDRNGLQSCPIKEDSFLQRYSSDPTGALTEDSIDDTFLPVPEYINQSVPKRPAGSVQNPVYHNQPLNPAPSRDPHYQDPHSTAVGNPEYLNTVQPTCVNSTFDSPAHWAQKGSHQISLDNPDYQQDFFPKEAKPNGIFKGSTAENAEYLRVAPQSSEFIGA
Sequence of Myc-GyrB-FGFR fusion protein (P11362 478-767 limits assumed): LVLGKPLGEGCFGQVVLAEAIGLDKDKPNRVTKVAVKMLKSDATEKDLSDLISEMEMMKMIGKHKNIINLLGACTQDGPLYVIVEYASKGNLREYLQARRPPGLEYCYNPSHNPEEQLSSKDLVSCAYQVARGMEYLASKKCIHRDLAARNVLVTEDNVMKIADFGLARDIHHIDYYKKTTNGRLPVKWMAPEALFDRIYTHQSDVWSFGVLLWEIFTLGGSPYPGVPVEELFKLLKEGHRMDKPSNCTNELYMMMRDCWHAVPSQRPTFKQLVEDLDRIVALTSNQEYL

Structure (SMILES)	IC50 ([1]; read-out: bio fgfR1 IC50) [µM]	IC50 (EGFR) [µM]	IC50 ([1]; bio fgfR1 IC50) [µM]
O=C(O)CCc1c(/C=C2\C(=O)Nc3cc(-c4ccccc4)ccc32)[nH]c2c1CCCC2 [Example 206, 3-[2-(2-oxo-6-phenyl-1,2-dihydroindol-3-ylidenemethyl)-4,5,6,7-tetrahydro-1H-indol-3-yl]-propionic acid]	1.18	–	–
COc1cccc(-c2ccc3c(c2)NC(=O)/C3=C\c2[nH]cc(C)c2CCC(=O)O)c1 [Example 223, 3-{2-[6-(3-Methoxyphenyl)-2-oxo-1,2-dihydro-indol-3-ylidenemethyl]-4-methyl-1H-pyrrol-3-yl}-propionic acid]	1.22	13.3	–
Cc1[nH]c2ccccc2c1/C=C1\C(=O)Nc2ccc(C(=O)O)cc21 [Example 182, 3-(2-Methyl-1H-indol-3-ylmethylene)-2-oxo-2,3-dihydro-1H-indole-5-carboxylic acid]	5.94	> 100	–
Cc1c(/C=C2\C(=O)Nc3ccc(N)cc32)[nH]c2ccccc12 [Example 180, 5-Amino-3-(3-methyl-1H-indol-2-ylmethylene)-1,3-dihydroindol-2-one]	5.42	> 100	–
Nc1ccc2c(c1)/C(=C/c1ccc3[nH]ccc3c1)C(=O)N2 [Example 179, 5-Amino-3-(1H-indol-5-ylmethylene)-1,3-dihydro-indol-2-one]	4.52	> 100	–
Cc1c[nH]c(/C=C2\C(=O)Nc3ccc(Cl)cc32)c1CCC(=O)O [Example 216, 3-[2-(5-Chloro-2-oxo-1,2-dihydroindol-3-ylidenemethyl)-4-methyl-1H-pyrrol-3-yl]-propionic acid]	–	> 100	–
CCOC(=O)c1c(C)[nH]c(/C=C2\C(=O)Nc3ccc(Br)cc32)c1CCC(=O)O [Compound 114, 5-(5-Bromo-2-oxo-1,2-dihydroindol-3-ylidenemethyl)-4-(2-carboxyethyl)-2-methyl-1H-pyrrole-3-carboxylic acid ethyl ester]	4.26	> 100	–
Cc1cc(CCC(=O)O)c(/C=C2\C(=O)Nc3ccc(Br)cc32)[nH]1 [Compound 116, 3-[2-(5-Bromo-2-oxo-1,2-dihydroindol-3-ylidenemethyl)-5-methyl-1H-pyrrol-3-yl]-propionic acid]	0.29	> 100	–
CNS(=O)(=O)c1ccc2c(c1)/C(=C/c1cc3ccccc3[nH]1)C(=O)N2 [Example 173, 3-(1H-Indol-2-ylmethylene)-2-oxo-2,3-dihydro-1H-indole-5-sulfonic acid methylamide]	0.29	22	–
NS(=O)(=O)c1ccc2c(c1)/C(=C/c1c[nH]c3ccccc13)C(=O)N2 [Example 172, 3-(1H-Indol-3-ylmethylene)-2-oxo-2,3-dihydro-1H-indole-5-sulfonic acid amide]	0.28	> 100	–
O=C1Nc2ccc(C(=O)O)cc2/C1=C/c1c[nH]c2ccccc12 [Example 174, 3-(1H-Indol-3-ylmethylene)-2-oxo-2,3-dihydro-1H-indole-5-carboxylic acid]	0.41	> 100	–
COc1c(C(C)C)cc(/C=C2/C(=O)Nc3ccccc32)cc1C(C)C [Example 1, 3-(3,5-Diisopropyl-4-methoxybenzylidene)-1,3-dihydroindol-2-one]	–	> 100	–
Cc1[nH]c2ccccc2c1/C=C1\C(=O)Nc2ccc(N)cc21 [Example 187, 5-Amino-3-(2-methyl-1H-indol-3-ylmethylene)-1,3-dihydroindol-2-one]	13.8	> 100	–
O=C(O)CCc1ccccc1/C=C1/C(=O)Nc2ccccc21 [Example 214, 3-[2-(2-Oxo-1,2-dihydroindol-3-ylidenemethyl)-phenyl]-propionic acid]	30.2	> 100	–
CCOc1cccc(-c2ccc3c(c2)NC(=O)/C3=C\c2[nH]cc(C)c2CCC(=O)O)c1 [Example 224, 3-{2-[6-(3-Ethoxyphenyl)-2-oxo-1,2-dihydro-indol-3-ylidenemethyl]-4-methyl-1H-pyrrol-3-yl}-propionic acid]	4.24	–	–
Cc1c[nH]c(C=C2C(=O)Nc3cc(Cl)ccc32)c1CCC(=O)O [Example 219, 3-[2-(6-Chloro-2-oxo-1,2-dihydroindol-3-ylidenemethyl)-4-methyl-1H-pyrrol-3-yl]-propionic acid]	–	98.1	–
COc1c(C(C)C)cc(/C=C2/C(=O)Nc3ccc(Cl)cc32)cc1C(C)C [Example 2, 5-Chloro-3-(3,5-diisopropyl-4-methoxybenzylidene)-1,3-dihydroindol-2-one]	–	> 100	–
O=C1Nc2ccc(N=Cc3cc4ccccc4[nH]3)cc2C1=Cc1cc2ccccc2[nH]1 [Example 171, 3-(1H-indol-2-ylmethylene)-5-[(1H-indol-2-ylmethylene)-amino]-1,3-dihydroindol-2-one]	> 20	> 100	–
O=C1Nc2ccc(C(=O)O)cc2/C1=C/c1ccc2[nH]ccc2c1 [Example 177, 3-(1H-Indol-5-ylmethylene)-2-oxo-2,3-dihydro-1H-indole-5-carboxylic acid]	1.6	6.13	–
Cc1c[nH]c(/C=C2\C(=O)Nc3ccccc32)c1CCC(=O)O [Example 215, 3-[4-Methyl-2-(2-oxo-1,2-dihydroindol-3-ylidenemethyl)-1H-pyrrol-3-yl]-propionic acid]	–	> 100	0.07

Continued, in another order:

IC50 ([1]; read-out: bio fgfR1 IC50) [µM]	IC50 (EGFR) [µM]	Structure (SMILES)	IC50 ([1]; bio fgfR1 IC50) [µM]
0.04	–	Cc1ccc2c(c1)/C(=C/c1[nH]c3c(c1CCC(=O)O)CCCC3)C(=O)N2 [Example 194, 3-[2-(5-Methyl-2-oxo-1,2-dihydroindol-3-ylidenemethyl)-4,5,6,7-tetrahydro-1H-indol-3-yl]-propionic acid]	–
–	> 100	COc1ccc2c(c1)/C(=C/c1[nH]cc(C)c1CCC(=O)O)C(=O)N2 [Example 222, 3-[2-(5-Methoxy-2-oxo-1,2-dihydroindol-3-ylidenemethyl)-4-methyl-1H-pyrrol-3-yl]-propionic acid]	–
–	> 100	CNC(=O)CCc1c(/C=C2\C(=O)Nc3ccccc32)[nH]c2c1CCCC2 [Example 201, N-Methyl-3-[2-(2-oxo-1,2-dihydroindol-3-ylidenemethyl)-4,5,6,7-tetrahydro-1H-indol-3-yl]-propionamide]	–
0.05	–	COc1ccc2c(c1)NC(=O)/C2=C\c1[nH]c2c(c1CCC(=O)O)CCCC2 [Example 196, 3-[2-(6-Methoxy-2-oxo-1,2-dihydroindol-3-ylidenemethyl)-4,5,6,7-tetrahydro-1H-indol-3-yl]-propionic acid]	–
–	> 100	COc1ccc2c(c1)NC(=O)/C2=C\c1[nH]cc(C)c1CCC(=O)O [Example 217, 3-[2-(6-Methoxy-2-oxo-1,2-dihydroindol-3-ylidenemethyl)-4-methyl-1H-pyrrol-3-yl]-propionic acid]	–
1.81	–	O=C(O)CCc1c(/C=C2\C(=O)Nc3ccc(Br)cc32)[nH]c2c1CCCC2 [Example 192, 3-[2-(5-Bromo-2-oxo-1,2-dihydroindol-3-ylidenemethyl)-4,5,6,7-tetrahydro-1H-indol-3yl]-propionic acid]	–
–	> 100	CN(C)CCCc1c(/C=C2\C(=O)Nc3ccccc32)[nH]c2c1CCCC2 [Example 198, 3-[3-(3-Dimethylaminopropyl)-4,5,6,7-tetrahydro-1H-indol-2-ylmethylene]-1,3-dihydroindol-2-one]	–
5.85	–	O=C(O)CCc1c(/C=C2\C(=O)Nc3ccccc32)[nH]c2c1CCCC2 [Example 190, 3-[2-(2-Oxo-1,2-dihydro-indol-3-ylidenemethyl)-4,5,6,7-tetrahydro-1H-indol-3-yl]-propionic acid]	–
–	> 100	CC(C)NS(=O)(=O)c1ccc2c(c1)C(=Cc1[nH]c3c(c1CCC(=O)O)CCCC3)C(=O)N2 [Example 208, 3-[2-(5-Isopropylaminosulfonyl-2-oxo-1,2-dihydroindol-3-ylidenemethyl)-4,5,6,7-tetrahydro-1H-indol-3-yl]-propionic acid]	–
0.04	> 100	O=C(O)CCc1c(/C=C2\C(=O)Nc3ccc(Cl)cc32)[nH]c2c1CCCC2 [Example 191, 3-[2-(5-Chloro-2-oxo-1,2-dihydroindol-3-ylidenemethyl)-4,5,6,7-tetrahydro-1H-indol-3-yl]-propionic acid]	–
–	> 100	NC(=O)CCc1c(/C=C2\C(=O)Nc3ccccc32)[nH]c2c1CCCC2 [Example 199, 3-[2-(2-Oxo-1,2-dihydroindol-3-ylidenemethyl)-4,5,6,7-tetrahydro-1H-indol-3-yl]-propionamide]	–
–	> 100	O=C1Nc2ccccc2/C1=C/c1[nH]c2c(c1CCC(=O)N1CCOCC1)CCCC2 [Example 200, 3-[3-(3-Morpholin-4-yl-3-oxopropyl)-4,5,6,7-tetrahydro-1H-indol-2-ylmethylene]-1,3-dihydroindol-2-one]	–
–	> 100	CN(C)C(=O)CCc1c(/C=C2\C(=O)Nc3ccccc32)[nH]c2c1CCCC2 [Example 197, N,N-Dimethyl-3-[2-(2-oxo-1,2-dihydroindol-3-ylidenemethyl)-4,5,6,7-tetrahydro-1H-indol-3-yl]-propionamide]	–
0.59	7.09	COc1cccc(-c2ccc3c(c2)NC(=O)/C3=C\c2[nH]c3c(c2CCC(=O)O)CCCC3)c1 [Example 204, 3-{2-[6-(3-Methoxyphenyl)-2-oxo-1,2-dihydro-indol-3-ylidenemethyl]-4,5,6,7-tetrahydro-1H-indol-3-yl}-propionic acid]	–
0.02	90.7	Cc1cccc2c1/C(=C/c1[nH]c3c(c1CCC(=O)O)CCCC3)C(=O)N2 [Example 193, 3-[2-(4-Methyl-2-oxo-1,2-dihydroindol-3-ylidenemethyl)-4,5,6,7-tetrahydro-1H-indol-3-yl]-propionic acid]	–
–	> 100	O=C(CCc1c(/C=C2\C(=O)Nc3ccccc32)[nH]c2c1CCCC2)NCCN1CCOCC1 [Example 202, N-(2-Morpholin-4-ylethyl)-3-[2-(2-oxo-1,2-dihydroindol-3-ylidenemethyl)-4,5,6,7-tetrahydro-1H-indol-3-yl]-propionamide]	–

From patent publication US6855730B2, “3-methylidenyl-2-indolinone modulators of protein kinase” (Sugen, Inc., priority 1998, dated 2005)
